Measurements taken from patent publication US20230002359A1, “PESTICIDALLY ACTIVE FUSED BICYCLIC HETEROAROMATIC COMPOUNDS” (priority 2019, published 2023).
Like-named read-outs stand apart in the source and are kept apart here.

Assays:
Format in all cases: in vivo
[1] = system: Plutella xylostella (Diamond Back Moth); assay: Example B4: Plutella xylostella (diamond back moth), artificial diet, eggs, 24-well; details: 192 h, read-out: control in at least one of the two categories (mortality or growth inhibition)
Description: 24-well microtiter plates with artificial diet were treated with aqueous test solutions prepared from 10′000 ppm DMSO stock solutions by pipetting. After drying, Plutella eggs were pipetted through a plastic stencil onto a gel blotting paper and the plate was closed with it. The samples were assessed for mortality and growth inhibition in comparison to untreated samples 8 days after infestation.

[2] = system: Spodoptera littoralis (Egyptian Cotton Leaf Worm); assay: Example B7: Spodoptera littoralis (Egyptian cotton leaf worm), cotton leaf discs sprayed, L1 larvae; details: foliar, 72 h, application rate of 200 ppm, 3 days after infestation, L1 larvae, read-out: control in at least one of the three categories (mortality, anti-feedant effect, or growth inhibition)
Description: Cotton leaf discs were placed onto agar in 24-well microtiter plates and sprayed with aqueous test solutions prepared from 10′000 ppm DMSO stock solutions. After drying the leaf discs were infested with five L1 larvae. The samples were assessed for mortality, anti-feeding effect, and growth inhibition in comparison to untreated samples 3 days after infestation. Control of Spodoptera littoralis by a test sample is given when at least one of the categories mortality, anti-feedant effect, and growth inhibition is higher than the untreated sample.

[3] = system: Chilo suppressalis (Striped Rice Stemborer); assay: Example B3: Chilo suppressalis (striped rice stemborer), artificial diet, L2 larvae; details: 144 h, read-out: control in at least one of the three categories (mortality, anti-feedant effect, or growth inhibition)
Description: 24-well microtiter plates with artificial diet were treated with aqueous test solutions prepared from 10′000 ppm DMSO stock solutions by pipetting. After drying, the plates were infested with L2 larvae (6-8 per well). The samples were assessed for mortality, anti-feeding effect, and growth inhibition in comparison to untreated samples 6 days after infestation. Control of Chilo suppressalis by a test sample is given when at least one of the categories mortality, anti-feedant effect, and growth inhibition is higher than the untreated sample.

[4] = system: Diabrotica Balteata (Corn Root Worm); assay: Example B1: Diabrotica balteata (corn root worm), maize sprouts sprayed, L2 larvae; details: 96 h, read-out: control in at least one of the two categories (mortality or growth inhibition)
Description: Maize sprouts placed onto an agar layer in 24-well microtiter plates were treated with aqueous test solutions prepared from 10′000 ppm DMSO stock solutions by spraying. After drying, the plates were infested with L2 larvae (6 to 10 per well). The samples were assessed for mortality and growth inhibition in comparison to untreated samples 4 days after infestation.

[5] = application rate of 200 ppm, 8 days after infestation, eggs
[6] = application rate of 200 ppm, 6 days after infestation, L2 larvae
[7] = application rate of 200 ppm, 4 days after infestation, L2 larvae

Compound | percent control (mortality or growth inhibition) at 200 ppm [1, 5] [%] | percent control (mortality, anti-feedant effect or growth inhibition) at 200 ppm [2] [%] | percent control (mortality, anti-feedant effect or growth inhibition) at 200 ppm [3, 6] [%] | percent control (mortality or growth inhibition) at 200 ppm [4, 7] [%] | percent control (mortality, anti-feedant effect or growth inhibition) at 200 ppm [3] [%] | percent control (mortality or growth inhibition) at 200 ppm [1] [%] | percent control (mortality or growth inhibition) at 200 ppm [4] [%]
CC(c1nccnc1-c1ccc(C#N)cn1)N(C)c1ncnc2c(C(F)(F)F)cc(Br)cc12 (centres unmarked) [P.125, 6-[3-[1-[[6-bromo-8-(trifluoromethyl)quinazolin-4-yl]-methyl-amino]ethyl]pyrazin-2-yl]pyridine-3-carbonitrile] | ≥ 80 | ≥ 80 |  |  |  |  | 
CC(c1ncnn1-c1ccc(F)cn1)N(C)c1ncnc2c(C(F)(F)F)cc(C(F)(F)F)cc12 (centres unmarked) [P.189, N-[1-[2-(5-fluoro-2-pyridyl)-1,2,4-triazol-3-yl]ethyl]-N-methyl-6,8-bis(trifluoromethyl)quina-zolin-4-amine] | ≥ 80 | ≥ 80 | ≥ 80 | ≥ 80 |  |  | 
CC(c1ncnn1-c1ccc(OC(F)F)cn1)N(C)c1ncnc2c(C(F)(F)F)cc(C(F)(F)F)cc12 (centres unmarked) [P.192] | ≥ 80 | ≥ 80 | ≥ 80 | ≥ 80 |  |  | 
CC(Nc1ncnc2c(Cl)cc(C(F)(F)F)cc12)c1nccnc1-c1ccc(C#N)cn1 (centres unmarked) [P.121, 6-[3-[1-[[8-chloro-6-(trifluoromethyl)quinazolin-4-yl]amino]ethyl]pryazin-2-yl]pyridine-3-carbonitrile] |  | ≥ 80 | ≥ 80 |  |  |  | 
CC(Nc1ncnc2c(C(F)(F)F)cc(Cl)cc12)c1ncnn1-c1ccc(C#N)cn1 (centres unmarked) [P.41, 6-[5-[1-[[6-chloro-8-(trifluoromethyl)quinazolin-4-yl]amino]ethyl]-1,2,4-triazol-1-yl]pyridine-3-carbonitrile] | ≥ 80 | ≥ 80 | ≥ 80 |  |  |  | 
CC(Nc1ncnc2c(Cl)c(F)c(Cl)cc12)c1ncnn1-c1ncccn1 (centres unmarked) [P.166, 6,8-dichloro-7-fluoro-N-[1-(2-pyrimidin-2-yl-1,2,4-triazol-3-yl)ethyl]quinazolin-4-amine] |  | ≥ 80 |  | ≥ 80 |  |  | 
CC(Nc1ncnc2c(C(F)(F)F)cc(Cl)cc12)c1ncnn1-c1ccc(F)cn1 (centres unmarked) [P.234, 6-chloro-N-[1-[2-(5-fluroo-2-pyridyl)-1,2,4-triazol-3-yl]ethyl]-8-(trifluoromethyl)quinazolin-4-amine] | ≥ 80 | ≥ 80 |  | ≥ 80 |  |  | 
C[C@@H](c1ncnn1-c1ccc(C#N)cn1)N(C)c1ncnc2c(C(F)(F)F)cc(Br)cc12 [P.204, 6-[5-[(1S)-1-[[6-bromo-8-(trifluoromethyl)quinazolin-4-yl]-methyl-amino]ethyl]-1,2,4-triazol-1-yl]pyridine-3-carbonitrile] | ≥ 80 | ≥ 80 |  |  |  |  | 
CC(c1nccnc1-n1nccn1)N(C)c1ncnc2c(OC(F)F)cc(Br)cc12 (centres unmarked) [P.180, 6-bromo-8-(difluoromethoxy)-N-methyl-N-[1-[3-(triazol-2-yl)pyrazin-2-yl]ethyl]quinazolin-4-amine] | ≥ 80 |  | ≥ 80 | ≥ 80 |  |  | 
CC(c1nccnc1-n1nccn1)N(C)c1ncnc2c(Br)cc(OC(F)(F)F)cc12 (centres unmarked) [P.179, 8-bromo-N-methyl-N-[1-[3-(triazol-2-yl)pyrazin-2-yl]ethyl]-6-(trifluoromethoxy)quinazo-lin-4-amine] | ≥ 80 |  | ≥ 80 | ≥ 80 |  |  | 
CC(Nc1ncnc2c(Cl)cc(C(F)(F)F)cc12)c1ncnn1-c1ccc(C#N)cn1 (centres unmarked) [P.45, 6-[5-[1-[[8-chloro-6-(trifluoromethyl)quinazolin-4-yl]amino]ethyl]-1,2,4-triazol-1-yl]pyridine-3-carbonitrile] | ≥ 80 | ≥ 80 | ≥ 80 |  |  |  | 
C[C@H](c1ncnn1-c1ccc(C#N)cn1)N(C)c1ncnc2c(C(F)(F)F)cc(C(F)(F)F)cc12 [P.53, 6-[5-[(1R)-1-[[6,8-bis(trifluoromethyl)quina-zolin-4-yl]-methyl-amino]ethyl]-1,2,4-triazol-1-yl]pyridine-3-carbonitrile] | ≥ 80 | ≥ 80 | ≥ 80 |  |  |  | 
CC(c1nccnc1-c1ccc(C#N)cn1)N(C)c1ncnc2c(C(F)(F)F)cc(Cl)cc12 (centres unmarked) [P.275, 6-[3-[1-[[6-chloro-8-(trifluoromethyl)quinazolin-4-yl]-methyl-amino]ethyl]pyrazin-2-yl]pyridine-3-carbonitrile] |  | ≥ 80 | ≥ 80 |  |  |  | 
CC(Nc1ncnc2c(C(F)(F)F)cc(Br)cc12)c1ncnn1-c1ccc(OC(F)F)cn1 (centres unmarked) [P.195, 6-bromo-N-[1-[2-[5-(difluoromethoxy)-2-pyridyl]-1,2,4-triazol-3-yl]ethyl]-8-(trifluoromethyl)quinazolin-4-amine] |  | ≥ 80 | ≥ 80 |  |  |  | 
COc1ccc(CN(c2ncnc3c(C(F)(F)F)cc(C(F)(F)F)cc23)C(C)c2nccnc2-c2ncccn2)cc1 (centres unmarked) [P.225, N-[(4-methoxyphenyl)methyl]-N-[1-(3-pyrimidin-2-ylpyrazin-2-yl)ethyl]-6,8-bis(trifluoromethyl)quina-zolin-4-amine] | ≥ 80 |  | ≥ 80 | ≥ 80 |  |  | 
CC(Nc1ncnc2c(Br)cc(C(F)(F)F)cc12)c1ncnn1-c1ccc(C#N)cn1 (centres unmarked) [P.42, 6-[5-[1-[[8-bromo-6-(trifluoromethyl)quinazolin-4-yl]amino]ethyl]-1,2,4-triazol-1-yl]pyridine-3-carbonitrile] | ≥ 80 | ≥ 80 | ≥ 80 |  |  |  | 
CC(c1nccnc1-n1nccn1)N(CC1CC1)c1ncnc2c(Cl)cc(C(F)(F)F)cc12 (centres unmarked) [P.76, 8-chloro-N-(cyclopropylmethyl)-N-[1-[3-(triazol-2-yl)pyrazin-2-yl]ethyl]-6-(trifluoromethyl)quinazolin-4-amine] | ≥ 80 |  | ≥ 80 | ≥ 80 |  |  | 
CC(Nc1ncnc2c(Br)cc(OC(F)(F)F)cc12)c1ncnn1-c1ccc(C#N)cn1 (centres unmarked) [P.246, 6-[5-[1-[[8-bromo-6-(trifluoromethoxy)quinazo-lin-4-yl]amino]ethyl]-1,2,4-triazol-1-yl]pyridine-3-carbonitrile] | ≥ 80 | ≥ 80 | ≥ 80 |  |  |  | 
CC(c1nccnc1-n1nccn1)N(CC1CC1)c1ncnc2c(C(F)(F)F)cc(Cl)cc12 (centres unmarked) [P.77, 6-chloro-N-(cyclopropylmethyl)-N-[1-[3-(triazol-2-yl)pyrazin-2-yl]ethyl]-8-(trifluoromethyl)quinazolin-4-amine] | ≥ 80 |  | ≥ 80 | ≥ 80 |  |  | 
CC(Nc1nc(Cl)nc2c(C(F)(F)F)cc(C(F)(F)F)cc12)c1ncnn1-c1ncccn1 (centres unmarked) [P.25, 2-chloro-N-[1-(2-pyrimidin-2-yl-1,2,4-triazol-3-yl)ethyl]-6,8-bis(trifluoromethyl)quinazolin-4-amine] |  | ≥ 80 | ≥ 80 | ≥ 80 |  |  | 
C[C@@H](c1ncnn1-c1ccc(C#N)cn1)N(C(=O)Oc1ccccc1)c1ncnc2c(C(F)(F)F)cc(C(F)(F)F)cc12 [P.226, phenyl N-[6,8-bis(trifluoromethyl)quina-zolin-4-yl]-N-[(1S)-1-[2-(5-cyano-2-pyridyl)-1,2,4-triazol-3-yl]ethyl]carbamate] |  |  |  |  | ≥ 80 | ≥ 80 | ≥ 80
